For the assay, the target named is T1, Syk (Homo sapiens, UniProt P43405).
T1 construct: purchased Carna Biosciences
The experiment in a line: Syk HTRF assay. It counts as biochemical. The protocol:
Test compounds were prepared at a concentration of 1.5 mM in DMSO followed by 3-fold dilutions in Greiner […] polypropylene plates. A 1:4 dilution of compounds by 8 μL/well transfer from the polypropylene plates to 24 μL/well Assay Buffer in Costar 3710 384 well black plates was then performed. Kinases (13 μL/well) or Assay Buffer only (background controls; 50 mM HEPES pH 7.6, 1 mM DTT, 10 mM MgCl2, 0.01% Triton X100, 0.01% BSA and 0.1 mM EDTA) were added to Costar 3710 384-well black plates for the HTRF assays (Carna Biosciences) and compound was added from the 1:4 dilution plate. Syk start mix (87.5 μM ATP, 80 nM Substrate Peptide (American Peptide Company 332722) was added and the mixture was incubated at room temperature for 1 hour. Syk Stop Solution (120 mM EDTA in dilution buffer) was then added to the Syk HTRF assay plate and incubated at room temperature on a shaker for 2 minutes. Syk Antibody Mix (4.86 μg/mL DyLight 647 Streptavidin (Pierce 21824); 1 μg/mL Lance Eu-Anti-Phosphotyrosine (PerkinElmer AD0069)) was added to the Syk HTRF assay plate and the mixture was further incubated at room temperature for >4 h. Time resolved fluorescence was read in assay plates on a PerkinElmer EnVision. HTRF assays were performed using 320 nm excitation, 60 μs delay, 665 nm and 615 nm emission. Data was expressed by division of 665 nm by 615 nm emissions.

Where [1] appears, read: IC50 activity level, read-out: Activity Level.
Where [2] appears, read: activity levels A-D, read-out: Activity Level (IC50 in the Syk HTRF assay).
Where [3] appears, read: read-out: Activity Level (Syk HTRF assay IC50).

Like-named read-outs stand apart in the source and are kept apart here.

In the case of `NC(=O)c1ccc(Nc2nc3cccc(N[C@H]4CC[C@@H](O)CC4)n3n2)cc1` [Example 429, cis-4-(5-(4-hydroxycyclohexylamino)-[1,2,4]triazolo[1,5-a]pyridin-2-ylamino)benzamide], under setting [1], the IC50 lay in the range of 0.005 to 250 nM. With `OCCNc1cc(-c2cccc3nc(Nc4ccc(C(F)(F)F)cc4)nn23)ccn1` [Example 312, 2-(4-(2-(4-(trifluoromethyl)phenylamino)-[1,2,4]triazolo[1,5-a]pyridin-5-yl)pyridin-2-ylamino)ethanol], the IC50 under setting [2] lay within 0.005 to 250 nM. As for `COc1ccc(Nc2nc3cccc(-c4ccccc4)n3n2)cn1` [compound 71, N-(6-methoxypyridin-3-yl)-5-phenyl-[1,2,4]triazolo[1,5-a]pyridin-2-amine], under setting [3], the IC50 lay in the range of 1000 to 10000 nM. Regarding `Oc1cc(Nc2cccc3nc(Nc4ccc(C(F)(F)F)cc4)nn23)ccn1` [Example 415, 4-(2-(4-(trifluoromethyl)phenylamino)-[1,2,4]triazolo[1,5-a]pyridin-5-ylamino)pyridin-2-ol], the IC50 under setting [1] fell in the range of 1000 to 10000 nM. On to `Cn1ncc2ccc(Nc3nc4cccc(N[C@H]5CC[C@@H](O)CC5)n4n3)cc21` [Example 364, cis-4-(2-(1-methyl-1H-indazol-6-ylamino)-[1,2,4]triazolo[1,5-a]pyridin-5-ylamino)cyclohexanol], for which the IC50 under setting [2] lay within 0.005 to 250 nM.

On to `O=C(N[C@H]1CCCNC1)c1cccc2nc(Nc3ccccc3)nn12` [Example 504, (S)-2-(phenylamino)-N-(piperidin-3-yl)-[1,2,4]triazolo[1,5-a]pyridine-5-carboxamide], for which the IC50 under setting [1] was in the range of 1000 to 10000 nM. The same measure, in the same setting: the result for `CC1(C)C(=O)Nc2cc(Nc3nc4cccc(C(F)(F)C5CCOCC5)n4n3)ccc21` [Example 536, 6-(5-(difluoro(tetrahydro-2H-pyran-4-yl)methyl)-[1,2,4]triazolo[1,5-a]pyridin-2-ylamino)-3,3-dimethylindolin-2-one] reads 0.005 to 250 nM; that for `NCCOc1cc(Nc2nc3cccc(NC4CCCNC4)n3n2)ccn1` (stereo in doubt) [Example 404, (S)-N^2-(2-(2-aminoethoxy)pyridin-4-yl)-N^5-(piperidin-3-yl)-[1,2,4]triazolo[1,5-a]pyridine-2,5-diamine], 0.005 to 250 nM. Turning to `Cc1n[nH]c2cc(Nc3nc4cccc(CN5CCCC(F)(F)C5)n4n3)ccc12` [Example 184, 5-((3,3-difluoropiperidin-1-yl)methyl)-N-(3-methyl-1H-indazol-6-yl)-[1,2,4]triazolo[1,5-a]pyridin-2-amine], under setting [3], the IC50 was in the range of 0.005 to 250 nM.

Consider `CC1(C)C(=O)Nc2cc(Nc3nc4cccc(CC5CCNCC5)n4n3)ccc21` [Example 138, 3,3-dimethyl-6-(5-(piperidin-4-ylmethyl)-[1,2,4]triazolo[1,5-a]pyridin-2-ylamino)indolin-2-one], for which the IC50 under setting [3] lay in the range of 0.005 to 250 nM. Still for that read-out and setting: the result for `c1ccc(-c2cccc3nc(Nc4ccc5cnoc5c4)nn23)cc1` [compound 48, N-(5-phenyl-[1,2,4]triazolo[1,5-a]pyridin-2-yl)benzo[d]isoxazol-6-amine] reads 1000 to 10000 nM. `O[C@H]1CCC[C@H]1Nc1cccc2nc(Nc3ccc(C(F)(F)F)cc3)nn12` (stereo in doubt) [Example 376, (1S,2R)-2-(2-(4-(trifluoromethyl)phenylamino)-[1,2,4]triazolo[1,5-a]pyridin-5-ylamino)cyclopentanol]: under setting [2], the IC50 fell in the range of 1000 to 10000 nM.

`Nc1cc(Nc2nc3cccc(-c4ccccc4)n3n2)ccn1` [compound 40]: the IC50 under setting [3] lay in the range of 500 to 1000 nM. Still for that read-out and setting: the result for `Cc1n[nH]c2cc(Nc3nc4cccc(NC5CCOC5)n4n3)ccc12` (stereo in doubt) [Example 167, (R)-N^2-(3-methyl-1H-indazol-6-yl)-N^5-(tetrahydrofuran-3-yl)-[1,2,4]triazolo[1,5-a]pyridin-2,5-diamine] reads 0.005 to 250 nM. For the compound `O[C@H]1CC[C@@H](Nc2cccc3nc(Nc4ccccc4F)nn23)CC1` [Example 357, cis-4-(2-(2-fluorophenylamino)-[1,2,4]triazolo[1,5-a]pyridin-5-ylamino)cyclohexanol], the IC50 under setting [2] lay within 1000 to 10000 nM. For `Oc1ccc(Nc2nc3cccc(-c4ccccc4)n3n2)cn1` [compound 70, 5-(5-phenyl-[1,2,4]triazolo[1,5-a]pyridin-2-ylamino)pyridine-2-ol], under setting [3], the IC50 fell in the range of 1000 to 10000 nM. As to `Cc1n[nH]c2cc(Nc3nc4cccc(CC5CCOCC5)n4n3)ccc12` [Example 199, N-(3-methyl-1H-indazol-6-yl)-5-((tetrahydro-2H-pyran-4-yl)methyl)-[1,2,4]triazolo[1,5-a]pyridin-2-amine], the IC50 under setting [2] was 0.005 to 250 nM. On to `Nc1n[nH]c2cc(Nc3nc4cccc(-c5ccccc5)n4n3)ccc12` [compound 57], for which the IC50 under setting [3] lay within 0.005 to 250 nM. As for `C[C@H](NCc1cccc2nc(Nc3ccc(C(F)(F)F)cc3)nn12)C(N)=O` [Example 222, (S)-2-((2-(4-(trifluoromethyl)phenylamino)-[1,2,4]triazolo[1,5-a]pyridin-5-yl)methylamino)propanamide], the IC50 under setting [2] is 1000 to 10000 nM.

As for `CNC(=O)c1ccc(Nc2nc3cccc(CC4CCNCC4)n3n2)cc1` [Example 276], the IC50 under setting [2] was 0.005 to 250 nM. For the compound `Cc1cncc(Nc2nc3cccc(N[C@H]4CC[C@@H](O)CC4)n3n2)c1` [Example 390, cis-4-(2-(5-methylpyridin-3-ylamino)-[1,2,4]triazolo[1,5-a]pyridin-5-ylamino)cyclohexanol], under setting [2], the IC50 lay in the range of 250 to 500 nM.

For `CNC(=O)c1ccc(Nc2nc3cccc(CC4CCNC4)n3n2)cc1` (stereo not shown) [Example 267, N-methyl-4-(5-(pyrrolidin-3-ylmethyl)-[1,2,4]triazolo[1,5-a]pyridin-2-ylamino)benzamide], the IC50 under setting [2] was in the range of 500 to 1000 nM. For the compound `c1ccc(Nc2nc3cccc(Nc4ccccc4)n3n2)cc1` [Example 529, N^2,N^5-diphenyl-[1,2,4]triazolo[1,5-a]pyridine-2,5-diamine], the IC50 under setting [1] lay in the range of 250 to 500 nM.

As for `CNC(=O)c1ccc(Nc2nc3cccc(-c4ccc5nc(C)[nH]c5c4)n3n2)cc1` [Example 244, N-methyl-4-(5-(2-methyl-1H-benzo[d]imidazol-6-yl)-[1,2,4]triazolo[1,5-a]pyridin-2-ylamino)benzamide], the IC50 under setting [2] was 0.005 to 250 nM. In the case of `CNC(=O)c1ccc(Nc2nc3cccc(N[C@H]4CC[C@H](O)CC4)n3n2)cc1` (stereo in doubt) [Example 387, trans-4-(5-(4-hydroxycyclohexylamino)-[1,2,4]triazolo[1,5-a]pyridin-2-ylamino)-N-methylbenzamide], the IC50 under setting [2] fell in the range of 1000 to 10000 nM. Take `COC[C@]1(O)CC[C@@H](Cc2cccc3nc(Nc4ccc(C(F)(F)F)cc4)nn23)CC1` [Example 187, cis-1-(methoxymethyl)-4-((2-(4-(trifluoromethyl)phenylamino)-[1,2,4]triazolo[1,5-a]pyridin-5-yl)methyl)cyclohexanol]: the IC50 under setting [3] is 500 to 1000 nM.

In the case of `CNC(=O)c1ccc(Nc2nc3cccc(OC4CCC(N)CC4)n3n2)cc1` (stereo in doubt) [Example 291, trans-4-(5-(4-aminocyclohexyloxy)-[1,2,4]triazolo[1,5-a]pyridin-2-ylamino)-N-methylbenzamide], the IC50 under setting [2] lay within 250 to 500 nM.

Turning to `c1cncc(Nc2nc3cccc(N[C@@H]4CCCNC4)n3n2)c1` [Example 434, (R)-N^5-(piperidin-3-yl)-N^2-(pyridin-3-yl)-[1,2,4]triazolo[1,5-a]pyridine-2,5-diamine], the IC50 under setting [1] was 1000 to 10000 nM. Turning to `FC(F)(F)c1ccc(Nc2nc3cccc(-c4cnc5nc[nH]c5c4)n3n2)cc1` [Example 380, 5-(1H-imidazo[4,5-b]pyridin-6-yl)-N-(4-(trifluoromethyl)phenyl)-[1,2,4]triazolo[1,5-a]pyridin-2-amine], under setting [2], the IC50 lay in the range of 0.005 to 250 nM.

In the case of `NC(=O)C1CCCN(Cc2cccc3nc(Nc4ccc(C(F)(F)F)cc4)nn23)C1` (stereo not shown) [Example 257, 1-((2-(4-(trifluoromethyl)phenylamino)-[1,2,4]triazolo[1,5-a]pyridin-5-yl)methyl)piperidine-3-carboxamide], under setting [2], the IC50 is 1000 to 10000 nM. In the case of `OCC1CCCN1Cc1cccc2nc(Nc3ccc(C(F)(F)F)cc3)nn12` (stereo in doubt) [Example 272, (R)-(1-((2-(4-(trifluoromethyl)phenylamino)-[1,2,4]triazolo[1,5-a]pyridin-5-yl)methyl)pyrrolidin-2-yl)methanol], the IC50 under setting [2] was in the range of 1000 to 10000 nM. With `NC(=O)c1ccc(Nc2nc3cccc(NC4CCC(N)CC4)n3n2)cc1` (stereo in doubt) [Example 492, trans-4-(5-(4-aminocyclohexylamino)-[1,2,4]triazolo[1,5-a]pyridin-2-ylamino)benzamide], under setting [1], the IC50 lay in the range of 0.005 to 250 nM. In the case of `CNC(=O)c1ccc(Nc2nc3cccc(N4CC[C@H](O)C4)n3n2)cc1` [Example 249, (S)-4-(5-(3-hydroxypyrrolidin-1-yl)-[1,2,4]triazolo[1,5-a]pyridin-2-ylamino)-N-methylbenzamide], under setting [2], the IC50 was 500 to 1000 nM.

On to `NCCN1Cc2ccc(-c3cccc4nc(Nc5ccccc5)nn34)cc2C1=O` [Example 495, 2-(2-aminoethyl)-6-(2-(phenylamino)-[1,2,4]triazolo[1,5-a]pyridin-5-yl)isoindolin-1-one], for which the IC50 under setting [1] was 1000 to 10000 nM.

The record behind these values is patent publication US8299056B2 (Signal Pharmaceuticals, LLC, priority 2008, dated 2012).
